Assay [1] deals with T1, crude enzyme obtained from pink petals of a carnation (variety: "Beam Cherry") (glycosyltransferase) (Dianthus caryophyllus, UniProt E3W9M2).
T1 construct: Thus, a crude enzyme liquid was obtained; from tissue; host or cells: pink petals of carnation, variety Beam Cherry (ammonium sulfate precipitate, desalted)
T1 sequence (E3W9M2 31-502): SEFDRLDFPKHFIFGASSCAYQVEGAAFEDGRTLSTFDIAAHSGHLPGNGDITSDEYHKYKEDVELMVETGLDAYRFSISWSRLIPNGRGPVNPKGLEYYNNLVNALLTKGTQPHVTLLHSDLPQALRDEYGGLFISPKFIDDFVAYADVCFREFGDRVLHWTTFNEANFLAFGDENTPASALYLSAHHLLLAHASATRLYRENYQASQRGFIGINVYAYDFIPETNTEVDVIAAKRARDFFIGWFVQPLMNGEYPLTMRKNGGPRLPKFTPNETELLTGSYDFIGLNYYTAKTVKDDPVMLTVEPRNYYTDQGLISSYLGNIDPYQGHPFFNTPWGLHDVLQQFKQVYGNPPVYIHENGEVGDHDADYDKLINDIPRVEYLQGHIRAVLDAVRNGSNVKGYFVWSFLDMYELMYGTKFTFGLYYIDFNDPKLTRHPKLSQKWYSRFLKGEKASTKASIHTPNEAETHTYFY
Kind of assay: Relative activity of crude carnation petal enzyme on each sugar donor (glycosyl transfer to cyanidin 3-glucoside, HPLC). As to conditions: crude enzyme 61 μg, cyanidin β-glucoside 200 μM, sugar donor 500 μM, citric acid buffer pH 5.6, 30° C., 15 minutes; HPLC area of cyanidin 3,5-O-β diglucoside. In kind it is biochemical. Here is the method:
An enzyme reaction was carried out at 30° C. for 15 minutes in a reaction solution obtained by adding a citric acid buffer (pH 5.6) to a crude enzyme obtained from pink petals of a carnation (variety: “Beam Cherry”) (61 μg), cyanidin β-glucoside (200 μM), and a sugar donor (1-O-β-vanillyl glucose extracted from a carnation or any of synthesized 1-O-vanillyl glucose (in the α or β form), 1-O-isovanillyl glucose (in the α or β form), and 1-O-galloyl glucose (in the α or β form)) (500 μM) to a final volume of 30 μl. The reaction was terminated by adding a 20% phosphoric acid aqueous solution to the reaction liquid so as to result in a final phosphoric acid concentration of 1%, followed by centrifugation. The obtained supernatant was subjected to separation using an HPLC (Chromolith Speed ROD; 4.6×50 mm; Merck) with a linear gradient (5 minutes) of 18% to 28% liquid B containing eluent A (a 1.5% phosphoric acid aqueous solution) and eluent B (a 90% methanol aqueous solution) (flow rate: 3.0 ml/min; 520 nm), followed by analysis. The relative activity of the enzyme on each sugar donor was calculated based on the HPLC chromatogram area of a reaction product (cyanidin 3,5-O-β diglucoside) at a wavelength of 505 nm.

Assay [2] has as its target T2, enzyme purified from pink petals of a carnation (variety: "Beam Cherry") (glycosyltransferase) (Dianthus caryophyllus, UniProt E3W9M2).
T2 construct: the enzyme comprising 502 amino acid residues was translated, followed by amino acid removal via processing; from tissue; host or cells: petals of carnation, variety Beam Cherry
T2 sequence (E3W9M2 31-502): T1 sequence (E3W9M2 31-502)
Kind of assay: Relative activity of glycosyltransferase purified from carnation on each sugar donor (HPLC). As to conditions: purified enzyme 135 ng, cyanidin 3-glucoside 200 μM, sugar donor 500 μM, citric acid buffer pH 5.6, 30° C., 15 minutes; HPLC area of cyanidin 3,5-O-β-diglucoside. In kind it is biochemical. Here is the method: An enzyme reaction was carried out at 30° C. for 15 minutes using an enzyme (135 ng) purified from pink petals of a carnation (variety: “Beam Cherry”) by the method described in Example 2 ((1) and (2)), cyanidin 3-glucoside (200 μM), and a sugar donor (1-O-β-D-vanillyl glucose or any of 1-O-β-D-p-coumaryl glucose, 1-O-β-D-caffeyl glucose, 1-O-β-D-feruloyl glucose, and 1-O-β-D-sinapoyl glucose that had been enzymatically synthesized according to the method described in Matsuba Y et al., Plant Biotechnology vol. 25, No. 4 (2008) pp. 369-375) (500 μM) in a reaction solution adjusted to 30 μl with the addition of a citric acid buffer (pH 5.6). A 20% phosphoric acid aqueous solution was added to the reaction liquid so as to result in a final phosphoric acid concentration of 1%. Thus, the reaction was terminated, followed by centrifugation. The resulting supernatant was subjected to separation using a HPLC column (Chromolith SpeedROD, 4.6×50 mm, Merck), eluent A (a 1.5% phosphoric acid aqueous solution), and eluent B (a 90% methanol aqueous solution) with a linear gradient of 18% to 28% liquid B (flow rate: 3.0 ml/min, 520 nm) (5 minutes), followed by analysis. The relative activity of the enzyme on each sugar donor was determined by calculating the area of the reaction product (cyanidin 3,5-O-β-diglucoside) on an HPLC chromatogram at a wavelength of 505 nm.

As for `COc1ccc(C(=O)O[C@H]2O[C@H](CO)[C@@H](O)[C@H](O)[C@H]2O)cc1O` [1-O-α-isovanillyl glucose (synthetic), 1-O-α-isovanillyl glucose], the “Relative activity of an enzyme on a sugar donor (when synthetic 1-O-β-vanillyl glucose is set as 100)” value (“Relative activity of an enzyme” for short) in assay [1] is “Not detectable”. `COc1cc(/C=C/C(=O)OC2OC(CO)C(O)C(O)C2O)cc(OC)c1O` [1-O-β-D-sinapoyl glucose (synthetic), 1-O-β-sinapoyl glucose]: the “Relative activity of an enzyme” value in assay [2] is reported as 793.

`O=C(/C=C/c1ccc(O)cc1)OC1OC(CO)C(O)C(O)C1O` [1-O-β-D-p-coumaryl glucose (synthetic), 1-O-β-p-coumaryl glucose]: the “Relative activity of an enzyme” value in assay [2] stood at 350. Turning to `O=C(O[C@@H]1O[C@H](CO)[C@@H](O)[C@H](O)[C@H]1O)c1cc(O)c(O)c(O)c1` [1-O-β-galloyl glucose (synthetic), 1-O-β-galloyl glucose], the “Relative activity of an enzyme” value in assay [1] is given as 2.4. Still for that read-out and setting: with `COc1ccc(C(=O)OC2OC(CO)C(O)C(O)C2O)cc1O` (stereo not drawn) [1-O-β-isovanillyl glucose (synthetic), 1-O-β-isovanillyl glucose] the figure was 23.1.

For `O=C(/C=C/c1ccc(O)c(O)c1)OC1OC(CO)C(O)C(O)C1O` [1-O-β-D-caffeyl glucose (synthetic), 1-O-β-caffeyl glucose], the “Relative activity of an enzyme” value in assay [2] amounted to 464. On the same count and under the same terms, with `COc1cc(/C=C/C(=O)OC2OC(CO)C(O)C(O)C2O)ccc1O` [1-O-β-D-feruloyl glucose (synthetic), 1-O-β-feruloyl glucose] the figure was 1320. Regarding “1-O-α-vanillyl glucose [1-O-α-vanillyl glucose (synthetic)]”, the “Relative activity of an enzyme” value in assay [1] is reported as 1.7.

The values above are taken from US8722868B2, “Glycosyltransferase, novel glycosyltransferase gene, and novel sugar donor compound” (National University Corporation Tokyo University of …, priority 2009, dated 2014).
